Tested on: HEK293 cells
Assay: Viability Assay of HEK293 Cells (CellTiter-Glo Luminescent Cell Viability Assay)
Type: cell-based
Settings: Homo sapiens, 7 days (168 h) incubation, compounds 3 μM to 0.00015 μM, ATP luminescence
Procedure: Viability Assay of HEK293 Cells
A viability assay was performed using the CellTiter-Glo® Luminescent Cell Viability Assay (see Promega Corporation's Technical Bulletin No. 288, pp. 1-11 [revised 2/04] which is hereby incorporated by reference in its entirety). This assay is a homogeneous method of determining the number of viable cells in culture based on quantitation of the ATP present, an indicator of metabolically active cells. The assay is designed for use with multiwell formats, making it ideal for automated high-throughput screening (HTS), cell proliferation and cytotoxicity assays. The homogeneous assay procedure involves adding a single reagent (containing luciferase, luciferan substrate, and buffer) directly to cells cultured in serum-supplemented medium. Cell washing, removal of medium and multiple pipetting steps are not required. The system detects as few as 15 cells/well in a 384-well format in 10 minutes after adding reagent and mixing.
The homogeneous “add-mix-measure” format results in cell lysis and generation of a luminescent signal proportional to the amount of ATP present. The amount of ATP is directly proportional to the number of cells present in culture. The above-referenced assay generates a “glow-type” luminescent signal, produced by the luciferase reaction, which has a half-life generally greater than five hours, depending on cell type and medium used. The extended half-life eliminates the need to use reagent injectors and provides flexibility for continuous or batch mode processing of multiple plates. The unique homogeneous format avoids errors that may be introduced by other ATP measurement methods that require multiple steps.
HEK293 cells (human embryonic kidney cell line transformed by Adenovirus 5 fragments, ATCC-No. CRL 1573) were cultivated in Dulbecco's Modified Eagle Medium (D-MEM) (1×) liquid (high glucose) (which includes L-Alanyl-L-Glutamine [a stabilized a form of L-Glutamine], 4500 mg/L glucose, and 110 mg/L sodium pyruvate) from Invitrogen Coropration (Invitrogen Catalog Number 31966-021 [now 10569-010] which is hereby incorporated by reference), 5% Fetal Calf Serum (FCS, Sigma Cat-No. F4135 (FBS)), 100 Units/ml penicillin/100 μg/ml streptomycin (=Pen/Strep from Invitrogen Cat. No. 15140). For the assay the cells were seeded in 384 well plates, 5000 cells per well, in the same medium. The next day the test compounds were added in various concentrations ranging from 3 μM to 0.00015 μM (10 concentrations, 1:3 diluted).
After 7 days the above viability assay was performed in accordance with the following steps: • Step 1: The cell-plate was equilibrated to room temperature for approximately 30 minutes and than the assay reagent was added. • Step 2: The contents were carefully mixed for 15 minutes to induce cell lysis. • Step 3: After 45 minutes the luminescent signal was measured in Victor 2, (a scanning multiwell spectrophotometer, Wallac). Details:
Medium: Dulbecco's Modified Eagle Medium (D-MEM) (1×) liquid (high glucose) (which includes L-Alanyl-L-Glutamine [a stabilized a form/source of L-Glutamine], 4500 mg/L glucose, and 110 mg/L sodium pyruvate) from Invitrogen Coropration (Invitrogen Catalog Number 31966-021 [now 10569-010] which is hereby incorporated by reference in its entirety), 5% Fetal Calf Serum (FCS, Sigma Cat-No. F4135 [FBS] which is hereby incorporated by reference in its entirety), Pen/Strep contaning 100 Units/ml penicillin/100 μg/ml streptomycin (Invitrogen Catalog Number 15140, which is hereby incorporated by reference in its entirety). —HEK293 (ATCC-No. CRL 1573): 5000 cells in 60 μl per well of 384 well plate (Greiner 781098, white plates) • Incubate 24 h at 37° C., 5% CO2
2. Day: Induction (Substance Testing): […]

| SMILES | IC50 [nM] |
| --- | --- |
| FC(F)(F)Oc1ccc2[nH]c(-c3nc(COc4ccc(CCCCn5ccnn5)cc4)co3)cc2c1 [Example 1, 2-{4-[4-(4-[1,2,3]Triazol-1-yl-butyl)-phenoxymethyl]-oxazol-2-yl}-5-trifluoromethoxy-1H-indole] | 0.1 to 50 |
| Clc1ccc2[nH]c(-c3nc(COc4ccc(CCCCn5ccnn5)cc4)co3)cc2c1 [Example 2, 5-Chloro-2-{4-[4-(4-[1,2,3]triazol-1-yl-butyl)-phenoxymethyl]-oxazol-2-yl}-1H-indole] | 0.1 to 50 |
| Fc1ccc2[nH]c(-c3nc(COc4ccc(CCCCn5ccnn5)cc4)co3)cc2c1 [Example 3, 5-Fluoro-2-{4-[4-(4-[1,2,3]triazol-1-yl-butyl)-phenoxymethyl]-oxazol-2-yl}-1H-indole] | 6.6 |
| Fc1ccc2cc(-c3nc(COc4ccc(CCCCn5ccnn5)cc4)co3)[nH]c2c1 [Example 4, 6-Fluoro-2-{4-[4-(4-[1,2,3]triazol-1-yl-butyl)-phenoxymethyl]-oxazol-2-yl}-1H-indole] | 0.1 to 50 |
| Cc1cc(OCc2coc(-c3cc4cc(F)ccc4[nH]3)n2)ccc1CCCCn1ccnn1 [Example 7, 5-Fluoro-2-{4-[3-methyl-4-(4-[1,2,3]triazol-1-yl-butyl)-phenoxymethyl]-oxazol-2-yl}-1H-indole] | 0.1 to 50 |
| Cc1cc(OCc2coc(-c3cc4ccc(F)cc4[nH]3)n2)ccc1CCCCn1ccnn1 [Example 8, 6-Fluoro-2-{4-[3-methyl-4-(4-[1,2,3]triazol-1-yl-butyl)-phenoxymethyl]-oxazol-2-yl}-1H-indole] | 0.1 to 50 |
| Clc1ccc2[nH]c(-c3nc(COc4ccc(COCCn5ccnn5)cc4)co3)cc2c1 [Example 10, 5-Chloro-2-{4-[4-(2-[1,2,3]triazol-1-yl-ethoxymethyl)-phenoxymethyl]-oxazol-2-yl}-1H-indole] | 0.1 to 50 |
| Fc1ccc2[nH]c(-c3nc(COc4ccc(COCCn5ccnn5)cc4)co3)cc2c1 [Example 11, 5-Fluoro-2-{4-[4-(2-[1,2,3]triazol-1-yl-ethoxymethyl)-phenoxymethyl]-oxazol-2-yl}-1H-indole] | 0.1 to 50 |
| [O-][S+](CCn1ccnn1)Cc1ccc(OCc2coc(-c3cc4cc(Cl)ccc4[nH]3)n2)cc1 (stereo not drawn) [Example 12, 5-Chloro-2-{4-[4-(2-[1,2,3]triazol-1-yl-ethanesulfinylmethyl)-phenoxymethyl]-oxazol-2-yl}-1H-indole] | 500 to 1000 |
| [O-][S+](CCn1ccnn1)Cc1ccc(OCc2coc(-c3cc4cc(F)ccc4[nH]3)n2)cc1 (stereo not drawn) [Example 13, 5-Fluoro-2-{4-[4-(2-[1,2,3]triazol-1-yl-ethanesulfinylmethyl)-phenoxymethyl]-oxazol-2-yl}-1H-indole] | 50 to 500 |
| FC(F)(F)Oc1ccc2[nH]c(-c3nc(COc4cccc(CCCn5ccnn5)c4)co3)cc2c1 [Example 14, 2-{4-[3-(3-[1,2,3]Triazol-1-yl-propyl)-phenoxymethyl]-oxazol-2-yl}-5-trifluoromethoxy-1H-indole] | 500 to 1000 |
| Clc1ccc2cc(-c3nc(COc4cccc(CCCn5ccnn5)c4)co3)[nH]c2c1 [Example 16, 6-Chloro-2-{4-[3-(3-[1,2,3]triazol-1-yl-propyl)-phenoxymethyl]-oxazol-2-yl}-1H-indole] | 0.1 to 50 |
| Clc1ccc2[nH]c(-c3nc(COc4ccc(CCCCn5ccnn5)cc4)cs3)cc2c1 [Example 17, 5-Chloro-2-{4-[4-(4-[1,2,3]triazol-1-yl-butyl)-phenoxymethyl]-thiazol-2-yl}-1H-indole] | 0.1 to 50 |
| Clc1ccc2[nH]c(-c3nc(COc4ccc(COCCn5ccnn5)cc4)cs3)cc2c1 [Example 18, 5-Chloro-2-{4-[4-(2-[1,2,3]triazol-1-yl-ethoxymethyl)-phenoxymethyl]-thiazol-2-yl}-1H-indole] | 50 to 500 |
| O=S(=O)(Cc1coc(-c2cc3cc(F)ccc3[nH]2)n1)c1ccc(CCCCn2ccnn2)cc1 [Example 21, 5-Fluoro-2-{4-[4-(4-[1,2,3]triazol-1-yl-butyl)-benzenesulfonylmethyl]-oxazol-2-yl}-1H-indole] | 50 to 500 |
| FC(F)(F)Oc1ccc2[nH]c(-c3nc(CNc4ccc(CCCCn5ccnn5)cc4)co3)cc2c1 [Example 22, [4-(4-[1,2,3]Triazol-1-yl-butyl)-phenyl]-[2-(5-trifluoromethoxy-1H-indol-2-yl)-oxazol-4-ylmethyl]-amine] | 50 to 500 |
| Fc1ccc2cc(-c3nc(CNc4ccc(CCCCn5ccnn5)cc4)co3)[nH]c2c1 [Example 23, [2-(6-Fluoro-1H-indol-2-yl)-oxazol-4-ylmethyl]-[4-(4-[1,2,3]triazol-1-yl-butyl)-phenyl]-amine] | 0.1 to 50 |
| Fc1ccc2[nH]c(-c3nc(CNc4ccc(CCCCn5ccnn5)cc4)co3)cc2c1 [Example 24, [2-(5-Fluoro-1H-indol-2-yl)-oxazol-4-ylmethyl]-[4-(4-[1,2,3]triazol-1-yl-butyl)-phenyl]-amine] | 37 |
| Cc1cc(NCc2coc(-c3cc4cc(Cl)ccc4[nH]3)n2)ccc1CCCCn1ccnn1 [Example 29, [2-(5-Chloro-1H-indol-2-yl)-oxazol-4-ylmethyl]-[3-methyl-4-(4-[1,2,3]triazol-1-yl-butyl)-phenyl]-amine] | 0.1 to 50 |
| Fc1ccc2[nH]c(-c3nc(CNc4ccc(CCCCn5ccnn5)c(F)c4)co3)cc2c1 [Example 32, [2-(5-Fluoro-1H-indol-2-yl)-oxazol-4-ylmethyl]-[3-fluoro-4-(4-[1,2,3]triazol-1-yl-butyl)-phenyl]-amine] | 0.1 to 50 |
| Fc1cc(NCc2coc(-c3cc4cc(Cl)ccc4[nH]3)n2)ccc1CCCCn1ccnn1 [Example 33, [2-(5-Chloro-1H-indol-2-yl)-oxazol-4-ylmethyl]-[3-fluoro-4-(4-[1,2,3]triazol-1-yl-butyl)-phenyl]-amine] | 0.1 to 50 |
| Fc1cc(CCCCn2ccnn2)ccc1NCc1coc(-c2cc3cc(Cl)ccc3[nH]2)n1 [Example 35, [2-(5-Chloro-1H-indol-2-yl)-oxazol-4-ylmethyl]-[2-fluoro-4-(4-[1,2,3]triazol-1-yl-butyl)-phenyl]-amine] | 50 to 500 |
| Fc1ccc2[nH]c(-c3nc(CNc4ccc(CCCCn5ccnn5)nc4)co3)cc2c1 [Example 38, [2-(5-Fluoro-1H-indol-2-yl)-oxazol-4-ylmethyl]-[6-(4-[1,2,3]triazol-1-yl-butyl)-pyridin-3-yl]-amine] | 50 to 500 |
| Cc1cc(OCc2coc(-c3cc4cc(F)ccc4[nH]3)n2)ccc1COCCn1ccnn1 [Example 40, 5-Fluoro-2-{4-[3-methyl-4-(2-[1,2,3]triazol-1-yl-ethoxymethyl)-phenoxymethyl]-oxazol-2-yl}-1H-indole] | 0.1 to 50 |
